Our source for the IC50 values is patent publication US20130259830A1, “CRTH2 MODULATORS” (Ironwood Pharmaceuticals, Inc., priority 2010, published 2013).

The target of assay [1] is T1, CRTH2 (Homo sapiens, UniProt Q9Y5Y4).
T1 construct: endogenous in cells; host or cells: eosinophils in human whole blood
T1 sequence (Q9Y5Y4 1-395): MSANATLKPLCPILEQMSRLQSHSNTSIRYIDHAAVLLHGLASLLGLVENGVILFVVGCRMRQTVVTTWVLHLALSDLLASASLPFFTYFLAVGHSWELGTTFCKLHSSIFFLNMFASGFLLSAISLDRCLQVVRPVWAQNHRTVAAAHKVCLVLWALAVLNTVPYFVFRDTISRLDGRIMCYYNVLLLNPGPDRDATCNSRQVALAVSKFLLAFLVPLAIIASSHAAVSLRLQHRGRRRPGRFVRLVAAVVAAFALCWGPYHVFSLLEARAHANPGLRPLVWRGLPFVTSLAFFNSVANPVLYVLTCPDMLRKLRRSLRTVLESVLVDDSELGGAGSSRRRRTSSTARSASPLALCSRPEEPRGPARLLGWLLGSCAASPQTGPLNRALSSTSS
As to the kind of experiment: DPBS CD11b antagonist assay (CD11b expression in eosinophils challenged with 15R-Methyl-PGD2). It counts as cell-based. The following applies: polymorphonuclear cells in PBS with CaCl2/MgCl2; agonist 15R-Methyl-PGD2 10 nM; eosinophils gated by flow cytometry. As for the experimental part:
DPBS CD111b Antagonist Assay.
The potential CRTH2 antagonist, activity of certain compounds was tested using a CD11b expression assay using essentially the method described by Monneret et al. (J Pharmacol Exp Ther 304:349-55, 2003). Briefly, polymorphonuclear cells (0.5 ml; 10^6/ml cells) in PBS containing 0.9 mM CaCl2 and 0.5 mM MgCl2) were preincubated with various concentrations of test compounds at room temperature for 10 minutes before they were challenged with the agonist 15R-Methyl-PGD2 (10 nM). The incubations were terminated by the addition of ice-cold FACSFlow (BD Biosciences; Cat#342003) and centrifugation (400 g for 5 minutes at 4° C.). The cells were then incubated for 30 minutes at 4° C. with a mixture of PE-labeled mouse anti-human VLA-4 (5 μl; BD Biosciences) and FITC-labeled mouse anti-human CD11b (10 μl; Beckman Coulter). The cells were then incubated with Optilyse C (0.25 ml; Beckman Coulter) for 15 minutes, centrifuged, and then fixed in PBS (0.4 ml; calcium and magnesium free) containing 1% formaldehyde. The distribution of fluorescence intensities among 60,000 cells was measured by flow cytometry. Eosinophils were gated out on the basis of their granularity (high side scatter) and labeling with VLA-4 (PE fluorescence). CD11b was then measured in the eosinophil region on the basis of fluorescence due to FITC. All data were corrected for the value obtained for the corresponding isotope control antibody.
For orientation: In flow cytometry, cells or beads pass a laser one at a time.

Assay [2] concerns the target T1, CRTH2. The assay is described as follows: Human whole blood CD11b antagonist assay (CD11b expression in eosinophils challenged with 15-R-methyl-PGD2). It counts as cell-based. The following applies: 37° C. 10 minutes preincubation, agonist 15R-Methyl-PGD2 10 nM, eosinophils gated by flow cytometry. As for the experimental part: Human Whole Blood […] Antagonist Assay (Modified from Nicholson, et al. Pulmonary Pharmacology and Therapeutics: 20 (2007); 52-59).
The potential CRTH2 antagonist activity of certain compounds was tested in human whole blood using an assay that tests the ability of the compounds to block the CD11b expression in eosinophils by 15-R-methyl-PGD2. A CRTH2 antagonist should block CD11b expression by subsequently added 15-Methyl-PGD2. Human whole blood (200 μL) was incubated at 37° C. for 10 minutes in the presence of various concentrations of test compounds before being challenged with the agonist 1-5R-Methyl-PGD2 (10 nM). Reactions were terminated by the addition of ice-cold PBS+0.5% BSA+2 mM EDTA (1 mL) and centrifugation (300×g for 5 minutes at 4° C.) Cells were then incubated at 4° C. for 10 min in the presence of human IgG. Cells were then incubated for 30-45 min with a mixture of PE-Cy5-labeled mouse anti-human CD16 (10 ul; BD Biosciences) and FITC-labeled mouse anti-human CD11b (10 μL; Beckman Coulter.) After rinsing (1 mL ice-cold PBS+0.5% BSA+2 mM EDTA), red blood cells were lysed by the addition of 1 mL ice-cold H2O to the cell pellet for 30 sec-1 min immediately followed by the addition of 3.5% NaCl (300 μL.) Cells were then rinsed (2×−1 ml ice cold PBS+0.5% BSA+2m MEDTA) and fixed in PBS containing 1% formaldehyde. The distribution of fluorescence intensities was measured by flow cytometry. Eosinophils were gated out on the basis of their granularity (high side scatter) and absence of CD-16. CD11b was then measured on this eosinophil population on the basis of fluorescence due to FITC.

The term IC50 denotes the concentration needed to halve the response being measured. With `Cc1c(Cc2ccccc2NS(=O)(=O)c2ccc(F)cc2F)c2c(n1CC(=O)O)CC(C)(C)CC2=O` [Compound I-22, 2-(3-(2-(2,4-Difluorophenylsulfonamido)benzyl)-2,6,6-trimethyl-4-oxo-4,5,6,7-tetrahydro-1H-indol-1-yl)acetic acid], the IC50 at CRTH2 [1] is < 1 nM; at CRTH2 [2], 20 to 100 nM.
The like results for `Cc1ccc(S(=O)(=O)N(C)c2cccc(Cc3c4c(n(CC(=O)O)c3C)CC(C)(C)CC4=O)c2)cc1` [Compound I-45, 2-(3-(3-(N,4-Dimethylphenylsulfonamido)benzyl)-2,6,6-trimethyl-4-oxo-4,5,6,7-tetrahydro-1H-indol-1-yl)acetic acid] were, in that order, 100 to 500 nM and > 3000 nM.
In the case of `CCOC(=O)Cn1c(C)c(Cc2cccnc2S(=O)(=O)c2ccc(C(F)(F)F)cc2)c2c1CC(C)(C)CC2=O` [Compound I-10, Ethyl 2-(2,6,6-trimethyl-4-oxo-3-((2-(4-(trifluoromethyl)phenylsulfonyl)pyridin-3-yl)methyl)-4,5,6,7-tetrahydro-1H-indol-1-yl)acetate], the values for the IC50 on CRTH2 [1] and on CRTH2 [2] were 1 to 5 nM and 100 to 500 nM, respectively.
In the same order, the values of `Cc1c(Cc2cccnc2S(C)(=O)=O)c2c(n1CC(=O)O)CC(C)(C)CC2=O` [Compound I-32, 2-(2,6,6-Trimethyl-3-((2-(methylsulfonyl)pyridin-3-yl)methyl)-4-oxo-4,5,6,7-tetrahydro-1H-indol-1-yl)acetic acid] are 500 to 3000 nM and 500 to 3000 nM.
With `Cc1c(Cc2ccccc2S(=O)(=O)N2CCCC2)c2c(n1CC(=O)O)CC(C)(C)C/C2=N\OCc1ccccc1` [Compound I-31, (E)-2-(4-(Benzyloxyimino)-2,6,6-trimethyl-3-(2-(pyrrolidin-1-ylsulfonyl)benzyl)-4,5,6,7-tetrahydro-1H-indol-1-yl)acetic acid], the IC50 at CRTH2 [1] is 1 to 5 nM; on CRTH2 [2], 100 to 500 nM.
In the same order, the values of `Cc1c(Cc2ccccc2N(C)S(=O)(=O)N2CCCC2)c2c(n1CC(=O)O)CC(C)(C)CC2=O` [Compound I-43, 2-(2,6,6-Trimethyl-3-(2-(N-methylpyrrolidine-1-sulfonamido)benzyl)-4-oxo-4,5,6,7-tetrahydro-1H-indol-1-yl)acetic acid] are 5 to 20 nM and 20 to 100 nM.
With `CCOC(=O)Cn1c(C)c(Cc2cccnc2S(=O)(=O)c2ccc(F)cc2)c2c1CC(C)(C)CC2=O` [Compound I-8, ethyl 2-(3-((2-(4-fluorophenylsulfonyl)pyridin-3-yl)methyl)-2,6,6-trimethyl-4-oxo-4,5,6,7-tetrahydro-1H-indol-1-yl)acetate], the figures for the IC50 on CRTH2 [1] and at CRTH2 [2] were 20 to 100 nM and 500 to 3000 nM, respectively.
In the same order, the values of `Cc1c(Cc2ccccc2NS(=O)(=O)c2ccc(O)cc2)c2c(n1CC(=O)O)CC(C)(C)CC2=O` [Compound I-48, 2-(3-(2-(4-Hydroxyphenylsulfonamido)benzyl)-2,6,6-trimethyl-4-oxo-4,5,6,7-tetrahydro-1H-indol-1-yl)acetic acid] are < 1 nM and 1 to 5 nM.
As for `Cc1c(Cc2ccccc2NS(=O)(=O)c2ccc(C(F)(F)F)cc2)c2c(n1CC(=O)O)CC(C)(C)CC2=O` [Compound I-25, 2-(2,6,6-Trimethyl-4-oxo-3-(2-(4-(trifluoromethyl)phenylsulfonamido)benzyl)-4,5,6,7-tetrahydro-1H-indol-1-yl)acetic acid], the IC50 on CRTH2 [1] is < 1 nM; on CRTH2 [2], 20 to 100 nM.
The like results for `Cc1c(Cc2cccnc2S(=O)(=O)c2ccc(F)cc2F)c2c(n1CC(=O)O)CC(C)(C)CC2=O` [Compound I-19, 2-(3-((2-(2,4-Difluorophenylsulfonyl)pyridin-3-yl)methyl)-2,6,6-trimethyl-4-oxo-4,5,6,7-tetrahydro-1H-indol-1-yl)acetic acid] were, in that order, 1 to 5 nM and 20 to 100 nM.
In the case of `Cc1c(Cc2ccccc2NS(=O)(=O)N2CCCC2)c2c(n1CC(=O)O)CC(C)(C)CC2=O` [Compound I-40, 2-(2,6,6-Trimethyl-4-oxo-3-(2-(pyrrolidine-1-sulfonamido)benzyl)-4,5,6,7-tetrahydro-1H-indol-1-yl)acetic acid], the figures for the IC50 at CRTH2 [1] and at CRTH2 [2] were 1 to 5 nM and 100 to 500 nM, respectively.
The like results for `Cc1c(Cc2ccccc2NS(=O)(=O)N2CCCC2)c2c(n1CC(=O)O)CC(C)(C)CC2=O` [Compound I-44] were, in that order, 1 to 5 nM and 100 to 500 nM.
The like results for `COc1ccc(S(=O)(=O)c2ncccc2Cc2c3c(n(CC(=O)O)c2C)CC(C)(C)CC3=O)cc1` [Compound I-7, 2-(3-((2-(4-methoxyphenylsulfonyl)pyridin-3-yl)methyl)-2,6,6-trimethyl-4-oxo-4,5,6,7-tetrahydro-1H-indol-1-yl)acetic acid] were, in that order, < 1 nM and 20 to 100 nM.
In the same order, the values of `Cc1c(Cc2cccnc2S(=O)(=O)c2ccc(F)cc2)c2c(n1CC(=O)O)CC(C)(C)CC2=O` [Compound I-5, 2-(3-((2-(4-fluorophenylsulfonyl)pyridin-3-yl)methyl)-2,6,6-trimethyl-4-oxo-4,5,6,7-tetrahydro-1H-indol-1-yl)acetic acid] are < 1 nM and 5 to 20 nM.
As to `Cc1c(Cc2ccccc2S(=O)(=O)N2CCCC2)c2c(n1CC(=O)O)CC(C)(C)C/C2=N\OC(C)(C)C` [Compound I-30, (E)-2-(4-(tert-Butoxyimino)-2,6,6-trimethyl-3-(2-(pyrrolidin-1-ylsulfonyl)benzyl)-4,5,6,7-tetrahydro-1H-indol-1-yl)acetic acid], the IC50 at CRTH2 [1] lay within 1 to 5 nM; on CRTH2 [2] it was 100 to 500 nM.
The like results for `COc1ccc(S(=O)(=O)c2ncccc2Cc2c3c(n(CC(=O)O)c2C)CC(C)(C)CC3=O)cc1F` [Compound I-21, 2-(3-((2-(3-Fluoro-4-methoxyphenylsulfonyl)pyridin-3-yl)methyl)-2,6,6-trimethyl-4-oxo-4,5,6,7-tetrahydro-1H-indol-1-yl)acetic acid] were, in that order, < 1 nM and 20 to 100 nM.
The like results for `Cc1c(Sc2ccccc2NS(=O)(=O)c2ccccc2)c2c(n1CC(=O)O)CC(C)(C)CC2` [Compound I-52, 2-(2,6,6-trimethyl-3-(2-(phenylsulfonamido)phenylthio)-4,5,6,7-tetrahydro-1H-indol-1-yl)acetic acid] were, in that order, < 1 nM and 5 to 20 nM.
The like results for `CCOC(=O)Cn1c(C)c(Cc2cccnc2S(=O)(=O)c2ccc(OC)cc2)c2c1CC(C)(C)CC2=O` [Compound I-6, ethyl 2-(3-((2-(4-methoxyphenylsulfonyl)pyridin-3-yl)methyl)-2,6,6-trimethyl-4-oxo-4,5,6,7-tetrahydro-1H-indol-1-yl)acetate] were, in that order, 5 to 20 nM and 500 to 3000 nM.
`Cc1c(Cc2cccnc2S(=O)(=O)c2ccccc2C(F)(F)F)c2c(n1CC(=O)O)CC(C)(C)CC2=O` [Compound I-17, 2-(2,6,6-Trimethyl-4-oxo-3-((2-(2-(trifluoromethyl)phenylsulfonyl)pyridin-3-yl)methyl)-4,5,6,7-tetrahydro-1H-indol-1-yl)acetic acid]: the half-inhibitory concentration (IC50) at CRTH2 [1] was < 1 nM; on CRTH2 [2] it was 5 to 20 nM.
